Results as given in the NIST ThermoML archive (doi:10.1021/je500381c).
± gives the expanded uncertainty stated by the source.

Assay: xn = mol fraction of the nth substance listed
Conditions: for mass density / viscosity: 100 kPa, Liquid; for mass density: Vibrating tube method; for surface tension liquid-gas: Drop volume

SMILES: CC12CC3CC(C)(C1)CC(C)(C3)C2 [1,3,5-trimethyladamantane] + OCC1CCCCC1
- mass density (293.15 K, x2 = 0): 887.48 ± 0.13 kg/m3
- mass density (293.15 K, x2 = 0.1): 889.7 ± 0.13 kg/m3
- mass density (293.15 K, x2 = 0.2001): 892.4 ± 0.13 kg/m3
- mass density (293.15 K, x2 = 0.2997): 895.41 ± 0.13 kg/m3
- mass density (293.15 K, x2 = 0.4): 898.82 ± 0.13 kg/m3
- mass density (293.15 K, x2 = 0.4994): 902.62 ± 0.13 kg/m3
- mass density (293.15 K, x2 = 0.5991): 906.88 ± 0.13 kg/m3
- mass density (293.15 K, x2 = 0.7): 911.64 ± 0.13 kg/m3
- mass density (293.15 K, x2 = 0.801): 917.1 ± 0.13 kg/m3
- mass density (293.15 K, x2 = 0.8927): 922.52 ± 0.13 kg/m3
- viscosity (293.15 K, x2 = 0): 2.601 ± 0.041 mPa·s
- viscosity (293.15 K, x2 = 0.1): 2.872 ± 0.045 mPa·s
- viscosity (293.15 K, x2 = 0.2001): 3.328 ± 0.052 mPa·s
- viscosity (293.15 K, x2 = 0.2997): 3.955 ± 0.062 mPa·s
- viscosity (293.15 K, x2 = 0.4): 4.859 ± 0.076 mPa·s
- viscosity (293.15 K, x2 = 0.4994): 6.211 ± 0.097 mPa·s
- viscosity (293.15 K, x2 = 0.5991): 8.288 ± 0.13 mPa·s
- viscosity (293.15 K, x2 = 0.7): 11.51 ± 0.18 mPa·s
- viscosity (293.15 K, x2 = 0.801): 16.66 ± 0.26 mPa·s
- viscosity (293.15 K, x2 = 0.8927): 24.62 ± 0.39 mPa·s
- surface tension liquid-gas (298.15 K, x2 = 0): 26.17 ± 0.15 mN/m
- surface tension liquid-gas (298.15 K, x2 = 0.1): 26.18 ± 0.15 mN/m
- surface tension liquid-gas (298.15 K, x2 = 0.2001): 26.4 ± 0.16 mN/m
- surface tension liquid-gas (298.15 K, x2 = 0.2997): 26.77 ± 0.16 mN/m
- surface tension liquid-gas (298.15 K, x2 = 0.4): 27.22 ± 0.16 mN/m
- surface tension liquid-gas (298.15 K, x2 = 0.4994): 27.65 ± 0.16 mN/m
- surface tension liquid-gas (298.15 K, x2 = 0.5991): 28.16 ± 0.16 mN/m
- surface tension liquid-gas (298.15 K, x2 = 0.7): 28.88 ± 0.16 mN/m
- surface tension liquid-gas (298.15 K, x2 = 0.801): 29.74 ± 0.17 mN/m
- surface tension liquid-gas (298.15 K, x2 = 0.8927): 30.63 ± 0.17 mN/m
- mass density (298.15 K, x2 = 0): 883.99 ± 0.13 kg/m3
- mass density (298.15 K, x2 = 0.1): 886.13 ± 0.13 kg/m3
- mass density (298.15 K, x2 = 0.2001): 888.82 ± 0.13 kg/m3
- mass density (298.15 K, x2 = 0.2997): 891.83 ± 0.13 kg/m3
- mass density (298.15 K, x2 = 0.4): 895.23 ± 0.13 kg/m3
- mass density (298.15 K, x2 = 0.4994): 899.02 ± 0.13 kg/m3
- mass density (298.15 K, x2 = 0.5991): 903.29 ± 0.13 kg/m3
- mass density (298.15 K, x2 = 0.7): 908.13 ± 0.13 kg/m3
- mass density (298.15 K, x2 = 0.801): 913.53 ± 0.13 kg/m3
- mass density (298.15 K, x2 = 0.8927): 918.95 ± 0.13 kg/m3
- viscosity (298.15 K, x2 = 0): 2.338 ± 0.037 mPa·s
- viscosity (298.15 K, x2 = 0.1): 2.55 ± 0.04 mPa·s
- viscosity (298.15 K, x2 = 0.2001): 2.939 ± 0.046 mPa·s
- viscosity (298.15 K, x2 = 0.2997): 3.455 ± 0.054 mPa·s
- viscosity (298.15 K, x2 = 0.4): 4.184 ± 0.065 mPa·s
- viscosity (298.15 K, x2 = 0.4994): 5.256 ± 0.082 mPa·s
- viscosity (298.15 K, x2 = 0.5991): 6.866 ± 0.11 mPa·s
- viscosity (298.15 K, x2 = 0.7): 9.343 ± 0.15 mPa·s
- viscosity (298.15 K, x2 = 0.801): 13.22 ± 0.21 mPa·s
- viscosity (298.15 K, x2 = 0.8927): 19.19 ± 0.3 mPa·s
- mass density (303.15 K, x2 = 0): 880.47 ± 0.13 kg/m3
- mass density (303.15 K, x2 = 0.1): 882.54 ± 0.13 kg/m3
- mass density (303.15 K, x2 = 0.2001): 885.21 ± 0.13 kg/m3
- mass density (303.15 K, x2 = 0.2997): 888.21 ± 0.13 kg/m3
- mass density (303.15 K, x2 = 0.4): 891.61 ± 0.13 kg/m3
- mass density (303.15 K, x2 = 0.4994): 895.4 ± 0.13 kg/m3
- mass density (303.15 K, x2 = 0.5991): 899.66 ± 0.13 kg/m3
- mass density (303.15 K, x2 = 0.7): 904.52 ± 0.13 kg/m3
- mass density (303.15 K, x2 = 0.801): 909.91 ± 0.13 kg/m3
- mass density (303.15 K, x2 = 0.8927): 915.34 ± 0.13 kg/m3
- viscosity (303.15 K, x2 = 0): 2.118 ± 0.033 mPa·s
- viscosity (303.15 K, x2 = 0.1): 2.297 ± 0.036 mPa·s
- viscosity (303.15 K, x2 = 0.2001): 2.615 ± 0.041 mPa·s
- viscosity (303.15 K, x2 = 0.2997): 3.041 ± 0.048 mPa·s
- viscosity (303.15 K, x2 = 0.4): 3.639 ± 0.057 mPa·s
- viscosity (303.15 K, x2 = 0.4994): 4.492 ± 0.07 mPa·s
- viscosity (303.15 K, x2 = 0.5991): 5.76 ± 0.09 mPa·s
- viscosity (303.15 K, x2 = 0.7): 7.681 ± 0.12 mPa·s
- viscosity (303.15 K, x2 = 0.801): 10.65 ± 0.17 mPa·s
- viscosity (303.15 K, x2 = 0.8927): 15.28 ± 0.24 mPa·s
- mass density (308.15 K, x2 = 0): 876.94 ± 0.13 kg/m3
- mass density (308.15 K, x2 = 0.1): 878.93 ± 0.13 kg/m3
- mass density (308.15 K, x2 = 0.2001): 881.59 ± 0.13 kg/m3
- mass density (308.15 K, x2 = 0.2997): 884.59 ± 0.13 kg/m3
- mass density (308.15 K, x2 = 0.4): 887.97 ± 0.13 kg/m3
- mass density (308.15 K, x2 = 0.4994): 891.76 ± 0.13 kg/m3
- mass density (308.15 K, x2 = 0.5991): 896.02 ± 0.13 kg/m3
- mass density (308.15 K, x2 = 0.7): 900.87 ± 0.13 kg/m3
- mass density (308.15 K, x2 = 0.801): 906.27 ± 0.13 kg/m3
- mass density (308.15 K, x2 = 0.8927): 911.73 ± 0.13 kg/m3
- viscosity (308.15 K, x2 = 0): 1.93 ± 0.03 mPa·s
- viscosity (308.15 K, x2 = 0.1): 2.072 ± 0.032 mPa·s
- viscosity (308.15 K, x2 = 0.2001): 2.336 ± 0.037 mPa·s
- viscosity (308.15 K, x2 = 0.2997): 2.694 ± 0.042 mPa·s
- viscosity (308.15 K, x2 = 0.4): 3.187 ± 0.05 mPa·s
- viscosity (308.15 K, x2 = 0.4994): 3.876 ± 0.061 mPa·s
- viscosity (308.15 K, x2 = 0.5991): 4.884 ± 0.076 mPa·s
- viscosity (308.15 K, x2 = 0.7): 6.386 ± 0.1 mPa·s
- viscosity (308.15 K, x2 = 0.801): 8.659 ± 0.14 mPa·s
- viscosity (308.15 K, x2 = 0.8927): 12.26 ± 0.19 mPa·s
- mass density (313.15 K, x2 = 0): 873.4 ± 0.13 kg/m3
- mass density (313.15 K, x2 = 0.1): 875.32 ± 0.13 kg/m3
- mass density (313.15 K, x2 = 0.2001): 877.95 ± 0.13 kg/m3
- mass density (313.15 K, x2 = 0.2997): 880.94 ± 0.13 kg/m3
- mass density (313.15 K, x2 = 0.4): 884.32 ± 0.13 kg/m3
